The target in one assay is human CB2 receptors (Homo sapiens (Human), UniProt P34972). In words: functional cAMP assay, CB2. The settings on record: CHO cells expressing human CB2. The assay is classed as cell-based. (cAMP levels reflect the balance of adenylyl cyclase and phosphodiesterase activity.)
A further assay has as its target human CB1 receptors (Homo sapiens (Human), UniProt P21554). In words: functional cAMP assay, CB1. The assay is classed as cell-based. Conditions: CHO cells expressing human CB1.

Consider 2 molecules from patent US9505762B2, “Purine derivatives as CB2 receptor agonists” (Hoffmann-La Roche Inc., priority 2013, dated 2016).

The structures appear in SMILES notation. pEC50: −log10 of the molar value. Some results are limits rather than exact numbers.

Chain of human CB2 receptors (P34972 whole entry): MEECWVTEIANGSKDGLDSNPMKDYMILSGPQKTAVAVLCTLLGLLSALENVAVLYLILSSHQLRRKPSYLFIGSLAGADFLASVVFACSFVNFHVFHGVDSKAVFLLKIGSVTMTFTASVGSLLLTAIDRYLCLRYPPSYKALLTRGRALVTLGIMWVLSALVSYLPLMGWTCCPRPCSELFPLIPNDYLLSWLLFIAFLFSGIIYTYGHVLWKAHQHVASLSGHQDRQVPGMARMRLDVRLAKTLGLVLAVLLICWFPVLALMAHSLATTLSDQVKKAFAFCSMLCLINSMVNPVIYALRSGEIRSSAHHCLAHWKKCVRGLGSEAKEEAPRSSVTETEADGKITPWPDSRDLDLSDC
Chain of human CB1 receptors (P21554 whole entry): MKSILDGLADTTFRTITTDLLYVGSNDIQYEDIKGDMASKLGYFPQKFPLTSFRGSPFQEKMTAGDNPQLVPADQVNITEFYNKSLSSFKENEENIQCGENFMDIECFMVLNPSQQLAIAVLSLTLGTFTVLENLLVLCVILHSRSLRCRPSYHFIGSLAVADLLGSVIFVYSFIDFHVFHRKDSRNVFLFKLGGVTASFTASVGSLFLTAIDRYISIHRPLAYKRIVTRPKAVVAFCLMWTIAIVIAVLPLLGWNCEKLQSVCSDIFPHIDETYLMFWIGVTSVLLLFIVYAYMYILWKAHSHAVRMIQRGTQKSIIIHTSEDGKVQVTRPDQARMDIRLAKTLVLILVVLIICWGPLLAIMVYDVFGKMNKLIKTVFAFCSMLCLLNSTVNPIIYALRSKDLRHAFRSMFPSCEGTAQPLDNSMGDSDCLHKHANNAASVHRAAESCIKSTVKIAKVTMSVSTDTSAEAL

Turning to `CC(C)(C)c1nc(N2CCC3(C2)CC3(F)F)c2ncn(Cc3ncccc3Cl)c2n1` (stereo not shown) [Example 168, 2-tert-butyl-9-[(3-chloropyridin-2-yl)methyl]-6-(2,2-difluoro-5-azaspiro[2.4]heptan-5-yl)purine], the values for the pEC50 on human CB2 receptors and at human CB1 receptors were 7.49 and less than 5.00, respectively.
Regarding `CC1(O)CN(c2nc(C(C)(C)C)nc3c2ncn3Cc2ncccc2Cl)C1` [Example 169, 1-[2-tert-butyl-9-[(3-chloropyridin-2-yl)methyl]purin-6-yl]-3-methylazetidin-3-ol], the pEC50 (commonly the EC50 on a negative log10 scale, so that one unit is a factor of ten) is 7.29 at human CB2 receptors and less than 5.00 on human CB1 receptors.
